Measured values published in paper PMC4329189, “A SelB/EF-Tu/aIF2γ-like protein from Methanosarcina mazei in the GTP-bound form binds cysteinyl-tRNA^Cys” (Journal of Structural and Functional Genomics, 2015).

Target: T1, MM1309 (Methanosarcina mazei, UniProt Q8PXB3)
T1 construct: gene MM_1309; full length, 350 residues, N-terminal His tag from pET28c kept (tag residues visible in crystal), expressed in E. coli; SeMet-substituted protein for the GMPPNP and GDP crystals
T1 sequence (Q8PXB3 1-350): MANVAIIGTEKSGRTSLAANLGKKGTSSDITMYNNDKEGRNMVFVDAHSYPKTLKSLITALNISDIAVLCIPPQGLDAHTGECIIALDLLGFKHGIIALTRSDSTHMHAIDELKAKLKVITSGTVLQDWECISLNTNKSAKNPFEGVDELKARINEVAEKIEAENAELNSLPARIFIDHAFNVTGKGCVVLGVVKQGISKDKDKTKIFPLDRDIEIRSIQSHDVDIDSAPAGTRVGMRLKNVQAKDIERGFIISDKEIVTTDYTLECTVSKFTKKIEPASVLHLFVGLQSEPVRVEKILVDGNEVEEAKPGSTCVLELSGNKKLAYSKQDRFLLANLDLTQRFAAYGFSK
Experiment: isothermal titration calorimetry
Assay type: binding

Question: For `Nc1nc2c(ncn2[C@@H]2O[C@H](COP(=O)(O)OP(=O)(O)NP(=O)(O)O)[C@@H](O)[C@H]2O)c(=O)[nH]1` [GMPPNP], which Kd is on record?
Answer: 222 µM

Question: How did the Kd turn out when `Nc1nc2c(ncn2[C@@H]2O[C@H](COP(=O)(O)OP(=O)(O)OP(=O)(O)O)[C@@H](O)[C@H]2O)c(=O)[nH]1` [GTP] was run?
Answer: 0.43 µM

Question: For `Nc1nc2c(ncn2[C@@H]2O[C@H](COP(=O)(O)OP(=O)(O)O)[C@@H](O)[C@H]2O)c(=O)[nH]1` [GDP], which Kd is on record?
Answer: 26.2 µM
